≈ marks a conversion by molar mass, not a printed value.
Tests used:
Candida auris (H.17.157) = conditions: Candidozyma auris, read-out: MIC99 Candida auris
Method: (§1) The Minimum Inhibitory Concentration (MIC, at 99% inhibition) of the compounds was determined using the broth microdilution method as recommended by EUCAST (EUCAST Definitive Document E.DEF 9.3.2, Method for the determination of broth dilution minimum inhibitory concentrations of antifungal agents for conidia forming moulds and EUCAST Definitive Document E.DEF 7.3.2 Method for the determination of broth dilution minimum inhibitory concentrations of antifungal agents for yeasts).

C. guilliiermondii = assay: Expanded set of yeasts, MIC broth microdilution (CLSI); assay type: cell-based; conditions: MIC at 50% inhibition; for MIC50: isolate Cgui1
[1] = system: A. fumigatus A1160 (MFIG001); conditions: Aspergillus fumigatus, read-out: MIC99 A. fumigatus A1160
Method: as §1

Paecilomyces variotii = assay: Expanded set of filamentous fungi, MIC broth microdilution (CLSI); assay type: cell-based; conditions: isolate MYA-3630, MIC at 50% inhibition
Blastomyces dermatitidis = assay: as above; assay type: cell-based
Lomentospora prolificans = assay: as above; assay type: cell-based; conditions: isolate S2, MIC at 50% inhibition
C. albicans = assay: Expanded set of yeasts, MIC broth microdilution (CLSI); assay type: cell-based; conditions: MIC at 50% inhibition; for MIC50: Candida albicans; for MIC50 C. albicans: isolate CA90028
Fusarium solani = assay: Expanded set of filamentous fungi, MIC broth microdilution (CLSI); assay type: cell-based; conditions: MIC at 50% inhibition; for MIC50: Fusarium solani, isolate F4; for MIC50 Fusarium solani: isolate DI19-284
[2] = system: SARS-CoV-2 (hCoV-19/Australia/VIC01/2020); assay: SARS-CoV-2 microplaque inhibition assay in Vero-E6 cells; assay type: cell-based
[3] = In vivo pharmacokinetics mouse model (distribution and tolerability); set-up: species or system male CD-1 mice
Method: The procedure used for in vivo pharmacokinetics experiments is described below.
1 mL of 2 mg/mL stock solution was prepared by adding 500 μL of DMSO to 2 mg of compound and vortexed well until the compound had fully dissolved. 500 μL of Saline for Injection (SFI, warmed to 37° C.) was added dropwise, under vortexing.
Working Solutions Immediately prior to dosing, the 2 mg/mL stock solution was diluted 1:5 to produce 0.4 mg/mL dosing solution. 2 mL of 0.4 mg/mL solution was prepared by adding 400 μL of […] stock solution to 1600 μL diluent (10% DMSO, 90% SFI).
The dosing solution was administered to 7 male CD-1 mice, at 5 mL/kg via intravenous (IV) injection (e.g. 30 g mouse with 150 μL). 3 mice were grouped for the blood sampling study and 4 mice were grouped for the tissue sampling study.
At each time point (0.5, 2, 4, 8 hours), 20 μL blood samples were collected from mice by tail prick into 20 μL EDTA blood collection capillary tubes on wet ice. 20 μL blood samples were added directly to the appropriate well of a 96 deep well plate and mixed with 20 μL of distilled water and the samples stored at −80° C. prior to bioanalysis.
At each time point (0.25 and 1 hour), the lung, both kidneys and the liver (left lateral lobe) were removed from culled mice (two per time point) and individually placed in pre-weighed bead beater tubes, which were then weighed to determine tissue weight. 4× weight/volume sterile water was added to the tissue. Tissues were homogenized in a Precellys bead beater then snap frozen at […] until bioanalysis.
Initial stock of Ia10 was made to 1 mg/mL in DMSO. Calibration and quality controls were made by spiking 1 mg/mL DMSO stock into desired matrix and serial dilution in matrix to desired concentration. Calibration range=1 ng/mL-5000 ng/mL. All samples were crashed out in 5× volume of Acetonitrile. Samples were centrifuged and supernatant diluted 1:3 in water to be analysed on LCMS.
Compound Ia10 has been evaluated in an in vivo pharmacokinetics mouse model in order to investigate compound distribution and tolerability.

[4] = isolate BD1, MIC at 50% inhibition
[5] = isolate BD2, MIC at 50% inhibition
[6] = isolate BD3, MIC at 50% inhibition

Row | SMILES | MIC99 (Candida auris (H.17.157)) | MIC50 (C. guilliiermondii) | MIC50 C. guilliiermondii (C. guilliiermondii; isolate Cgui2) | MIC50 C. guilliiermondii (C. guilliiermondii; isolate Cgui3) | MIC99 [1] | MIC50 (Paecilomyces variotii) | MIC50 (Blastomyces dermatitidis; [4]) | MIC50 (Blastomyces dermatitidis; [5]) | MIC50 (Blastomyces dermatitidis; [6]) | MIC50 (Lomentospora prolificans) | MIC50 (C. albicans; isolate CA3) | MIC50 (C. albicans; isolate SC5314) | MIC50 C. albicans (C. albicans) | MIC50 (Fusarium solani) | MIC50 Fusarium solani (Fusarium solani) | also measured
1 | C/N=C(\CCNC(=O)c1cc(NC(=O)c2cc(NC(=O)c3ccc(/C=C/c4ccc(N(C)C)cc4)nc3)cn2C)cn1C)NC [Ia8, 6-((E)-4-(dimethylamino)styryl)-N-(1-methyl-5-((1-methyl-5-(((E)-3-(methylamino)-3-(methylimino)propyl)carbamoyl)-1H-pyrrol-3-yl)carbamoyl)-1H-pyrrol-3-yl)nicotinamide] | > 50 µg/mL | 1 to 8 µg/mL (≈ 1.64 to 13.1 µM) | ** (** means 1 μg/mL < MIC50 <= 8 μg/mL) | ** (** means 1 μg/mL < MIC50 <= 8 μg/mL) | 5 to 25 µg/mL (≈ 8.2 to 41 µM) | 1 to 8 µg/mL (≈ 1.64 to 13.1 µM) | 1 to 8 µg/mL (≈ 1.64 to 13.1 µM) | 1 to 8 µg/mL (≈ 1.64 to 13.1 µM) | 1 to 8 µg/mL (≈ 1.64 to 13.1 µM) | 1 to 8 µg/mL (≈ 1.64 to 13.1 µM) | 1 to 8 µg/mL (≈ 1.64 to 13.1 µM) | 1 to 8 µg/mL (≈ 1.64 to 13.1 µM) | ** (** means 1 μg/mL < MIC50 <= 8 μg/mL) | ≤ 1 µg/mL | *** (*** means MIC50 <= 1 μg/mL) | –
2 | [H]/N=C(\CCNC(=O)c1cc(NC(=O)c2cc(NC(=O)c3ccc(C=Cc4ccc(N(C)C)cc4)nc3)cn2C)cn1C)NC [Ia9, (E)-6-(4-(dimethylamino)styryl)-N-(5-((5-((3-imino-3-(methylamino)propyl)carbamoyl)-1-methyl-1H-pyrrol-3-yl)carbamoyl)-1-methyl-1H-pyrrol-3-yl)nicotinamide] | > 50 µg/mL | 1 to 8 µg/mL (≈ 1.68 to 13.4 µM) | ** (** means 1 μg/mL < MIC50 <= 8 μg/mL) | ** (** means 1 μg/mL < MIC50 <= 8 μg/mL) | 5 to 25 µg/mL (≈ 8.39 to 42 µM) | 1 to 8 µg/mL (≈ 1.68 to 13.4 µM) | 1 to 8 µg/mL (≈ 1.68 to 13.4 µM) | 1 to 8 µg/mL (≈ 1.68 to 13.4 µM) | 1 to 8 µg/mL (≈ 1.68 to 13.4 µM) | ≤ 1 µg/mL | 1 to 8 µg/mL (≈ 1.68 to 13.4 µM) | 1 to 8 µg/mL (≈ 1.68 to 13.4 µM) | ** (** means 1 μg/mL < MIC50 <= 8 μg/mL) | ≤ 1 µg/mL | *** (*** means MIC50 <= 1 μg/mL) | SARS-CoV-2 Selectivity Indices, Group ([2]; SI, IC50 (μM)/IC50 (μM), HEK293 cytotoxicity, Alkyl Amidines and NH Pyrroles): B (Group B: 4.1 < SI <= 10); IC50 ([2]; Severe acute respiratory syndrome coronavirus 2, Vero C1008, plaque inhibition, Vero-E6 cells, read-out: IC50 SARS-CoV-2): 2 to 8 µM
3 | C/N=C(/CCNC(=O)c1cc(NC(=O)c2cc(NC(=O)c3ccc(/C=C/c4cnc5ccccc5c4)cc3)cn2C)cn1C)NC [Ia10, 1-methyl-4-(1-methyl-4-(4-((E)-2-(quinolin-3-yl)vinyl)benzamido)-1H-pyrrole-2-carboxamido)-N—((Z)-3-(methylamino)-3-(methylimino)propyl)-1H-pyrrole-2-carboxamide] | 5 to 25 µg/mL (≈ 8.11 to 40.5 µM) | 1 to 8 µg/mL (≈ 1.62 to 13 µM) | ** (** means 1 μg/mL < MIC50 <= 8 μg/mL) | ** (** means 1 μg/mL < MIC50 <= 8 μg/mL) | < 5 µg/mL | 1 to 8 µg/mL (≈ 1.62 to 13 µM) | 1 to 8 µg/mL (≈ 1.62 to 13 µM) | 1 to 8 µg/mL (≈ 1.62 to 13 µM) | 8 to 32 µg/mL (≈ 13 to 51.9 µM) | ≤ 1 µg/mL | 1 to 8 µg/mL (≈ 1.62 to 13 µM) | 1 to 8 µg/mL (≈ 1.62 to 13 µM) | ** (** means 1 μg/mL < MIC50 <= 8 μg/mL) | ≤ 1 µg/mL | *** (*** means MIC50 <= 1 μg/mL) | Blood conc @ 1 Hr ([3]; 2 mg/kg IV dose in mice, blood, 1 Hr): 204 nM; Lung conc @ 1 Hr ([3]; 2 mg/kg IV dose in mice, lung, 1 Hr): 28.968 µM; Accumulation in lung tissue ([3]; 2 mg/kg IV in mice): remarkable accumulation in lung tissue; Tolerability ([3]; 2 mg/kg IV in mice (higher doses were not investigated)): well tolerated; Kp at 1 h ([3]; male, CD-1, mouse, lung vs whole blood, 2 mg/kg IV dose in mice, lung vs blood at 1 Hr, read-out: Lung accumulation factor): ~142

— US20250313546A1, “NUCLEIC ACID BINDERS” (UNIVERSITY OF STRATHCLYDE, priority 2022, published 2025)
